Measured values as given in ChEMBL document CHEMBL1201862, “PubChem BioAssay data set” (2004).
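Dose response: 5 concentrations. Exposure: 48 h. Format: 96-well plates. Endpoint: linear interpolation; highest concentration if not reached. GI50 marks 50% less growth.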 Active and inactive are the calls of the source. Cut-off read from the data, not from the text of the source: active = GI50 up to about 1.1 µM and inactive = higher.

Legend:
Experiment in all cases: NCI-60 cell line screen, 48 h
[1] = tested on: 786-0
[2] = tested on: A549
[3] = tested on: DU-145
[4] = tested on: EKVX
[5] = tested on: Hs-578T
[6] = tested on: IGROV-1
[7] = tested on: K562
[8] = tested on: KM12
[9] = tested on: MCF7
[10] = tested on: NCI-H460
[11] = tested on: OVCAR-8
[12] = tested on: SF-268
[13] = tested on: SK-MEL-28
[14] = tested on: SK-MEL-5
[15] = tested on: SN12C
[16] = tested on: SW-620
[17] = tested on: U-251
[18] = tested on: UO-31
[19] = tested on: Malme-3M

Measured: GI50

O=C(CNc1ccccc1Cl)Nn1c(-c2ccccc2)nc2ccccc2c1=O
inactive: [1] 19.7 µM | [2] 44.8 µM | [3] > 100 µM | [4] 18.6 µM | [5] 25.6 µM | [6] 23.7 µM | [7] 23.2 µM | [8] 28.6 µM | [9] 14.8 µM | [10] 78.5 µM | [11] 40.7 µM | [12] 30.1 µM | [13] 21.2 µM | [14] 10.2 µM | [15] 34.4 µM | [16] 19.8 µM | [17] 17.4 µM | [18] 47.1 µM

CC(C)(C)c1ccc2c(c1)S(=O)(=O)Nc1cccc(c1)NS(=O)(=O)c1cc(C(C)(C)C)ccc1OCCOCCO2
inactive: [1] > 100 µM | [2] > 100 µM | [4] > 100 µM | [6] > 100 µM | [7] > 100 µM | [8] > 100 µM | [19] > 100 µM | [10] > 100 µM | [11] > 100 µM | [12] > 100 µM | [13] > 100 µM | [14] > 100 µM | [15] > 100 µM | [16] > 100 µM | [17] > 100 µM | [18] > 100 µM

CCOC(=O)C(C)(C)Oc1ccc(/C=C/C(=O)c2ccc(Cl)cc2)cc1
inactive: [1] 17.2 µM | [2] 33.5 µM | [4] > 100 µM | [6] 17.3 µM | [7] 14.3 µM | [19] 18.4 µM | [10] 28.7 µM | [11] 21.6 µM | [12] 19.1 µM | [13] 19.4 µM | [14] 14.9 µM | [15] 19.1 µM | [16] 13.9 µM | [17] 17.7 µM | [18] 35.2 µM

O=C1CCC2(c3ccc(Cl)cc3)Nc3ccncc3N12 (configuration not stated)
inactive: [1] > 10 µM | [2] > 10 µM | [3] 4.4 µM | [4] > 10 µM | [5] > 10 µM | [6] > 10 µM | [7] > 10 µM | [8] > 10 µM | [19] > 10 µM | [10] > 10 µM | [11] > 10 µM | [12] > 10 µM | [15] > 10 µM | [16] > 10 µM | [17] > 10 µM | [18] > 10 µM

O=C(/C=C/c1ccccc1O)C(c1ccccc1)c1ccccc1
inactive: [1] 51.1 µM | [2] > 100 µM | [4] > 100 µM | [6] > 100 µM | [7] 78.5 µM | [8] 98.9 µM | [19] > 100 µM | [10] > 100 µM | [11] > 100 µM | [12] > 100 µM | [13] > 100 µM | [14] > 100 µM | [15] > 100 µM | [16] 13.1 µM | [17] > 100 µM | [18] > 100 µM

CS(=O)(=O)C1S(=O)(=O)OCCOS1(=O)=O
inactive: [1] > 100 µM | [2] > 100 µM | [4] > 100 µM | [6] > 100 µM | [7] > 100 µM | [8] > 100 µM | [19] > 100 µM | [10] > 100 µM | [11] > 100 µM | [12] > 100 µM | [13] > 100 µM | [14] > 100 µM | [15] > 100 µM | [16] > 100 µM | [17] > 100 µM | [18] > 100 µM

CC(C)(C)C(=O)/C=C/c1ccc(Oc2ccccc2)cc1
inactive: [1] 19.4 µM | [2] 28.5 µM | [4] 20 µM | [6] 30.8 µM | [7] 7.03 µM | [8] 14.8 µM | [19] 19.2 µM | [10] 19.2 µM | [11] 30.7 µM | [12] 22 µM | [13] 32 µM | [14] 16.2 µM | [15] 19.3 µM | [16] 17.3 µM | [17] 14.8 µM | [18] 15.8 µM

Cc1c(-c2ccccc2)[nH]c2cn[nH]c(=O)c12
inactive: [1] > 100 µM | [2] > 100 µM | [3] > 100 µM | [4] 34.6 µM | [5] 74.6 µM | [6] > 100 µM | [7] 99.8 µM | [8] 83.2 µM | [9] 45.1 µM | [19] > 100 µM | [10] > 100 µM | [11] > 100 µM | [12] > 100 µM | [13] > 100 µM | [14] 67.9 µM | [16] > 100 µM | [17] > 100 µM | [18] 80 µM

CSc1cccc(-n2c3nc(=O)n(C)c(=O)c-3nc3ccccc32)c1
inactive: [1] 4.92 µM | [2] 2.65 µM | [4] 19.3 µM | [6] 13.6 µM | [7] 12.5 µM | [8] 12.9 µM | [19] 3.04 µM | [10] 2.4 µM | [11] 8.83 µM | [12] 16.6 µM | [13] 17.4 µM | [14] 1.25 µM | [15] 5.38 µM | [16] 3.78 µM | [17] 7.98 µM | [18] 17.4 µM
